Assays:
NCI-H226 = assay: Cytotoxicity against human NCI-H226 cells assessed as cell growth at 100 uM after 1 to 11 days by MTT assay; type: functional; conditions: read-out: Activity
MCF7 = assay: Cytotoxicity against human MCF7 cells after 1 to 11 days by MTT assay; type: functional
OVCAR-4 = assay: Cytotoxicity against human OVCAR4 cells after 1 to 11 days by MTT assay; type: functional
HCT-116 [1] = assay: Cytotoxicity against human HCT116 cells assessed as cell growth at 1 uM after 1 to 11 days by MTT assay; type: functional; conditions: read-out: Activity
SK-MEL-5 = assay: Cytotoxicity against human SK-MEL-5 cells assessed as cell growth at 1 mM after 1 to 11 days by MTT assay; type: functional; conditions: read-out: Activity
K562 = assay: Cytotoxicity against human K562 cells after 1 to 11 days by MTT assay; type: functional
MOLT-4 = assay: Cytotoxicity against human MOLT4 cells assessed as cell growth at 1 mM after 1 to 11 days by MTT assay; type: functional; conditions: read-out: Activity
HL-60(TB) = assay: Cytotoxicity against human HL-60(TB) cells assessed as cell growth at 0.1 uM after 1 to 11 days by MTT assay; type: functional; conditions: read-out: Activity
PC-3 [2] = assay: Cytotoxicity against human PC3 cells assessed as cell growth at 100 uM after 1 to 11 days by MTT assay; type: functional; conditions: read-out: Activity
NCI/ADR-RES [3] = assay: Cytotoxicity against human NCI/ADR-RES cells assessed as cell growth at 1 uM after 1 to 11 days by MTT assay; type: functional; conditions: read-out: Activity
NCI-H460 = assay: Cytotoxicity against human NCI-H460 cells assessed as cell growth at 100 uM after 1 to 11 days by MTT assay; type: functional; conditions: read-out: Activity
A498 = assay: Cytotoxicity against human A498 cells after 1 to 11 days by MTT assay; type: functional
DU-145 = assay: Cytotoxicity against human DU145 cells assessed as cell growth at 10 uM after 1 to 11 days by MTT assay; type: functional; conditions: read-out: Activity
[4] = target: Glycogen synthase kinase-3 beta (Homo sapiens) (UniProt P49841); assay: Inhibition of human GSK3-beta assessed as residual enzyme activity at 3 uM after 40 mins by scintillation counting
OVCAR-3 [5] = assay: Cytotoxicity against human OVCAR-3 cells assessed as cell growth at 1 mM after 1 to 11 days by MTT assay; type: functional; conditions: read-out: Activity
NCI-H322M = assay: Cytotoxicity against human NCI-H322M cells assessed as cell growth at 10 uM after 1 to 11 days by MTT assay; type: functional; conditions: read-out: Activity
NCI/ADR-RES [6] = assay: Cytotoxicity against human NCI/ADR-RES cells assessed as cell growth at 10 uM after 1 to 11 days by MTT assay; type: functional; conditions: read-out: Activity
HCT-116 [7] = assay: Cytotoxicity against human HCT116 cells assessed as cell growth at 0.1 uM after 1 to 11 days by MTT assay; type: functional; conditions: read-out: Activity
OVCAR-3 [8] = assay: Cytotoxicity against human OVCAR-3 cells assessed as cell growth at 0.1 uM after 1 to 11 days by MTT assay; type: functional; conditions: read-out: Activity
UACC-62 [9] = assay: Cytotoxicity against human UACC62 cells assessed as cell growth at 1 mM after 1 to 11 days by MTT assay; type: functional; conditions: read-out: Activity
PC-3 [10] = assay: Cytotoxicity against human PC3 cells after 1 to 11 days by MTT assay; type: functional
SW-620 = assay: Cytotoxicity against human SW620 cells after 1 to 11 days by MTT assay; type: functional
786-0 = assay: Cytotoxicity against human 786-0 cells after 1 to 11 days by MTT assay; type: functional
UACC-257 = assay: Cytotoxicity against human UACC257 cells assessed as cell growth at 1 mM after 1 to 11 days by MTT assay; type: functional; conditions: read-out: Activity
HOP-92 = assay: Cytotoxicity against human HOP92 cells assessed as cell growth at 10 uM after 1 to 11 days by MTT assay; type: functional; conditions: read-out: Activity
PC-3 [11] = assay: Cytotoxicity against human PC3 cells assessed as cell growth at 1 uM after 1 to 11 days by MTT assay; type: functional; conditions: read-out: Activity
UACC-62 [12] = assay: Cytotoxicity against human UACC62 cells assessed as cell growth at 1 uM after 1 to 11 days by MTT assay; type: functional; conditions: read-out: Activity
U-251 = assay: Cytotoxicity against human U251 cells assessed as cell growth at 10 uM after 1 to 11 days by MTT assay; type: functional; conditions: read-out: Activity
A549 = assay: Cytotoxicity against human A549 cells assessed as cell growth at 1 uM after 1 to 11 days by MTT assay; type: functional; conditions: read-out: Activity
IGROV-1 = assay: Cytotoxicity against human IGROV1 cells assessed as cell growth at 100 uM after 1 to 11 days by MTT assay; type: functional; conditions: read-out: Activity
COLO 205 = assay: Cytotoxicity against human COLO205 cells assessed as cell growth at 0.1 uM after 1 to 11 days by MTT assay; type: functional; conditions: read-out: Activity
CCRF-CEM = assay: Cytotoxicity against human CCRF-CEM cells assessed as cell growth at 100 uM after 1 to 11 days by MTT assay; type: functional; conditions: read-out: Activity
HCC 2998 = assay: Cytotoxicity against human HCC2998 cells assessed as cell growth at 1 uM after 1 to 11 days by MTT assay; type: functional; conditions: read-out: Activity
MDA-MB-468 = assay: Cytotoxicity against human MDA-MB-468 cells assessed as cell growth at 0.1 uM after 1 to 11 days by MTT assay; type: functional; conditions: read-out: Activity
RXF 393 = assay: Cytotoxicity against human […] cells assessed as cell growth at 1 uM after 1 to 11 days by MTT assay; type: functional; conditions: read-out: Activity
HCT-15 = assay: Cytotoxicity against human HCT15 cells assessed as cell growth at 0.1 uM after 1 to 11 days by MTT assay; type: functional; conditions: read-out: Activity
SR = assay: Cytotoxicity against human SR cells assessed as cell growth at 1 uM after 1 to 11 days by MTT assay; type: functional; conditions: read-out: Activity
TK-10 = assay: Cytotoxicity against human TK10 cells assessed as cell growth at 100 uM after 1 to 11 days by MTT assay; type: functional; conditions: read-out: Activity
PC-3 [13] = assay: Cytotoxicity against human PC3 cells assessed as cell growth at 1 mM after 1 to 11 days by MTT assay; type: functional; conditions: read-out: Activity
HOP-62 = assay: Cytotoxicity against human HOP62 cells assessed as cell growth at 100 uM after 1 to 11 days by MTT assay; type: functional; conditions: read-out: Activity
KM12 = assay: Cytotoxicity against human KM12 cells assessed as cell growth at 10 uM after 1 to 11 days by MTT assay; type: functional; conditions: read-out: Activity
SNB-19 = assay: Cytotoxicity against human SNB19 cells after 1 to 11 days by MTT assay; type: functional
[14] = target: Glycogen synthase kinase-3 beta (Homo sapiens) (UniProt P49841); assay: Inhibition of human GSK3-beta at 3 uM after 40 mins by scintillation counting
[15] = read-out: LC50 (the source's name)

Glycogen synthase kinase-3 beta (Homo sapiens), sequence (P49841 whole entry, looked up): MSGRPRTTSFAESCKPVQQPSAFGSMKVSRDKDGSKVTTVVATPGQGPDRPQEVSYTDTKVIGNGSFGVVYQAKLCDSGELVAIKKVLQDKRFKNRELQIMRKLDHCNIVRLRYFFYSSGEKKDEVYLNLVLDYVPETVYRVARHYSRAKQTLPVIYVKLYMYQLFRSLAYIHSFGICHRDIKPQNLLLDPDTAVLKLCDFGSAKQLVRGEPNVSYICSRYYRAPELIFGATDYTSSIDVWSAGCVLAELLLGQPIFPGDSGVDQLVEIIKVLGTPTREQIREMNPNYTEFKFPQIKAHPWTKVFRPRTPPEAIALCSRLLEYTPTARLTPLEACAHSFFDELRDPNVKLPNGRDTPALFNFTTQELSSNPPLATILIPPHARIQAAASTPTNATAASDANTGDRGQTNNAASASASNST

O=C1Nc2ncccc2/C1=C1/Nc2ccccc2/C1=N\O
growth at 100 µM (NCI-H226): -5%
GI50 (MCF7): 15.9 µM
TGI (MCF7): > 100 µM
CC50 (MCF7; [15]): > 100 µM
GI50 (OVCAR-4): 9.1 µM
TGI (OVCAR-4): > 100 µM
CC50 (OVCAR-4; [15]): > 100 µM
growth at 1 µM (HCT-116 [1]): 107%
growth at 1000 µM (SK-MEL-5): 30%
GI50 (K562): 3.84 µM
TGI (K562): > 100 µM
CC50 (K562; [15]): > 100 µM
growth at 1000 µM (MOLT-4): 18%
growth at 0.1 µM (HL-60(TB)): 103%
growth at 100 µM (PC-3 [2]): 44%
growth at 1 µM (NCI/ADR-RES [3]): 100%
growth at 100 µM (NCI-H460): 41%
GI50 (A498): 1.93 µM
TGI (A498): > 100 µM
CC50 (A498; [15]): > 100 µM
growth at 10 µM (DU-145): 84%
Activity [4]: 18%
growth at 1000 µM (OVCAR-3 [5]): 51%
growth at 10 µM (NCI-H322M): 56%
growth at 10 µM (NCI/ADR-RES [6]): 99%
growth at 0.1 µM (HCT-116 [7]): 109%
growth at 0.1 µM (OVCAR-3 [8]): 99%
growth at 1000 µM (UACC-62 [9]): 25%
GI50 (PC-3 [10]): 6.82 µM
TGI (PC-3 [10]): > 100 µM
CC50 (PC-3 [10]; [15]): > 100 µM
GI50 (SW-620): 7.45 µM
TGI (SW-620): > 100 µM
CC50 (SW-620; [15]): > 100 µM
GI50 (786-0): 7.46 µM
CC50 (786-0; [15]): > 100 µM
growth at 1000 µM (UACC-257): 60%
growth at 10 µM (HOP-92): 62%
growth at 1 µM (PC-3 [11]): 83%
growth at 1 µM (UACC-62 [12]): 88%
growth at 10 µM (U-251): 89%
growth at 1 µM (A549): 95%
growth at 100 µM (IGROV-1): 13%
growth at 0.1 µM (COLO 205): 96%
growth at 100 µM (CCRF-CEM): 37%
growth at 1 µM (HCC 2998): 87%
growth at 0.1 µM (MDA-MB-468): 77%
growth at 1 µM (RXF 393): 94%
growth at 0.1 µM (HCT-15): 95%
growth at 1 µM (SR): 89%
growth at 100 µM (TK-10): 49%
growth at 1000 µM (PC-3 [13]): 45%
growth at 100 µM (HOP-62): 63%
growth at 10 µM (KM12): 45%
GI50 (SNB-19): > 100 µM
TGI (SNB-19): > 100 µM
CC50 (SNB-19; [15]): > 100 µM
inhibition [14]: 81%
